Source: BindingDB's records for doi:10.7270/Q24M9315 (The Scripps Research Institute Molecular Screening Center, 2011)

Target: T1, Caspase-3 (Homo sapiens, UniProt P42574)
T1 sequence (P42574 whole entry): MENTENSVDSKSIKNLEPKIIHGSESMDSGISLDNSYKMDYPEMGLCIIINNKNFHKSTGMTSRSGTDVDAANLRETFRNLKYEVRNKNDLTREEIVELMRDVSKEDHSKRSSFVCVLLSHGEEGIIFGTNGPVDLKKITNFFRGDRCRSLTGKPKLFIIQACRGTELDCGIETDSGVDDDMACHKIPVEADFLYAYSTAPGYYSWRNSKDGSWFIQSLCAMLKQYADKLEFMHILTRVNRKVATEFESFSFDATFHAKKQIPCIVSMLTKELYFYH
Assay: procaspase-3 activation potency of dual hits, dose response, counter-screen for dual procaspase-3/7 activator project, biochemical, absorbance, PC-3 D3A mutant (AID 504328)

| Structure (SMILES) | EC50 |
| --- | --- |
| COc1ccccc1-n1c(O)c2n(-c3ccccc3)[nH]c(C(=O)c3ccccc3)c-2c1=O | > 85.3 µM |
| COC(=O)c1[nH]n(-c2ccc(Cl)cc2)c2c(O)n(-c3ccccc3OC)c(=O)c1-2 [1-(4-Chloro-phenyl)-5-(2-methoxy-phenyl)-4,6-dioxo-1,3a,4,5,6,6a-hexahydro-pyrrolo[3,4-c]pyrazole-3-carboxylic acid methyl ester] | > 85.3 µM |
| O=C(c1ccccc1)c1[nH]n(-c2ccccc2)c2c(O)n(-c3ccccc3)c(=O)c1-2 [3-benzoyl-1,5-diphenyl-3a,6a-dihydropyrrolo[3,4-c]pyrazole-4,6-dione] | > 85.3 µM |
| CCOC(=O)C(C#N)C=Nc1cc(OC)ccc1OC (configuration not stated) [(E)-2-Cyano-3-(2,5-dimethoxy-phenylamino)-acrylic acid ethyl ester] | > 85.3 µM |
| C=CC=Nc1c(Cl)c(O)n(-c2cccc(Cl)c2Cl)c1O [MLS000533809] | > 85.3 µM |
| Cc1[nH]nc2c1C(c1c[nH]c3ccccc13)C(C#N)C(=N)O2 (configuration not stated) [MLS001030009] | 23.1 µM |
| CCOc1ccc(NC=C2C(=O)CC(c3ccco3)CC2=O)cc1 (configuration not stated) [SMR000268302] | > 85.3 µM |
